Experimental findings from article PMC7562719, “Discovery of a CNS penetrant small molecule SMN2 splicing modulator with improved tolerability for spinal muscular atrophy” (Scientific Reports, 2020) are described below.

Molecules are shown by their SMILES.

As a reminder, the IC50 is the concentration that gives 50% inhibition.

The test system of one assay is Hs683 cells. The assay is described as follows: psychosine/sphingosine ratio in Hs683 cells by LC/MS/MS. The class given is cell-based, human. The conditions noted are these: 3000 nM, 12 days, normalized by sphingosine. As to the method:
Hs683 cells were seeded at 1.5 × 10^5 cells/well in 6-well plates and were treated with TEC-1 or SMN-C3 for 12 days. The sample was extracted with EtOH and dried under nitrogen spray. Pellet was completely re-dissolved in EtOH using vortex and ultrasonication. The resulting sample was centrifuged at 15,000 rpm for 5 min at 4 °C. Analytes were separated from the supernatant and quantified by LC/MS/MS as reported by Boutin et al.[48].

The subject of a further assay is FL-SMN2 mRNA. Nature of the assay: qPCR of FL-SMN2 transcripts in SMA type II fibroblasts (GM03813). In kind it is cell-based, human. The conditions noted are these: 24 h, 50% total FL-SMN2 mRNA increase, normalized to GAPDH, 95% CI in brackets. The procedure: (§1) GM03813 fibroblasts, GM24468-derived MNs, NRK-49F, MDCK, CV-1, or NCMDF cells were plated at a density of 0.5 or 1.5 × 10^4, 4 × 10^4, 5 × 10^3, 5 × 10^3, 8 × 10^3, or 6 × 10^3 cells/well on 96-well plates, respectively. After approximately 6 h, the medium was added with the same volume of culture medium containing each compound at the concentration of 0.06, 0.2, 0.6, 0.2, and 6 µM. The final concentration of DMSO was adjusted to 0.1% in culture condition.
(§2) All cells were treated with above compounds for 24 h and washed once with Dulbecco’s Phosphate-Buffered Saline without Ca and Mg [D-PBS (–)] (Wako or Nakarai Tesque). In case of using GM03813 or GM24468-derived MNs, cell lysis and reverse transcription were carried out using SuperPrep Cell Lysis & RT Kit for qPCR in accordance with manufacturer’s recommendations (Toyobo, Japan). qPCR was performed using THUNDERBIRD Probe qPCR Mix (Toyobo). The final concentrations of primers and probes were adjusted to 0.4 µM and 0.15 µM, respectively (Supplementary Table 1). Cycle conditions were as follows; 95 °C for 1 min; followed by 40 cycles of denaturation at 95 °C for 15 s; annealing and elongation at 60 °C for 1 min in the ViiA7 RT-PCR system (Thermo Fisher Scientific). The copy numbers of each target were normalized to those of GAPDH.

A further assay deals with GALC. The assay is described as follows: GALC enzymatic assay from Hs683 cells. The conditions noted are these: 3 days. The class given is cell-based, human. As to the method: GALC enzymatic activities were quantified as reported by Wiederschain et al.[47]. Hs683 cells were seeded at 1.5 × 10^5 cells/well in 6-well plate. Cells were treated with TEC-1 (0.1, 0.3, or 1 µM) or SMN-C3 (0.03, 0.1, 0.3, or 1 µM) for 3 days. Hs683 cells were washed with D-PBS (–), collected with ultra-pure water using a cell scraper, and homogenized with homogenizers (NS-4, NS310E, Micotechnition, Japan) for 10 s. Cell lysates were centrifuged at 600 × g for 10 min at 4 °C, followed by collection of supernatants. The concentration of protein of each sample was quantified with a BCA kit. The samples were adjusted to 1 µg protein/µL (total volume 20 µL) with ultra-pure water and then 80 µL of reaction buffer (0.25% taurocholate, 0.05% oleic acid and 0.1 mol/L citrate, pH 4.4) containing 80 µM 6-Hexadecanoylamino-4-methylumbelliferone b-D-galactopyranoside (HMU-Gal, Carbosynth, UK) was added. Stop buffer (0.2 mol/L Glycine solution with NaOH, pH 10.6) was mixed with an equal amount of ethanol. The mixture was reacted at 37 °C for 20 h. […] Signals were detected by reading the fluorescence emission at 450 nm with plate reader (Enspire, PerkinElmer) excited by 385 nm. The fluorescence intensity was corrected by the value of standard substrate of 6-hexadecanoylamino-4-methylumbelliferone (Cat. No. EH10520, Carbosynth).

A further assay concerns FOXM1ΔC. Nature of the assay: qPCR of FOXM1ΔC variant in GM03813 fibroblasts. The conditions noted are these: 24 h, 300% total target mRNA increase, 95% CI in brackets. The class given is cell-based, human. The procedure: as §1, §2
A general note: In qPCR the cycle at which signal appears reflects the starting amount.

The target of assay [1] is T1, human acetylcholinesterase (Homo sapiens, UniProt P22303).
T1 construct: purchased Eurofins Inc
The assay is described as follows: Eurofins selectivity panel: acetylcholinesterase. In kind it is biochemical.

The next assay concerns SMNΔ7 mice. The assay is described as follows: murine model of SMA (SMNΔ7 mice): survival, body weight, righting reflex. In kind it is in vivo, mouse. The conditions noted are these: for SMA mice that survived / survivors at P65 / total mice: 20 mg/kg; for survivors at P65 / total mice: SMA mice. As to the method: A pair of heterozygous SMNΔ7 mice[28] (mSmn+/−, SMN2+/+, SMNΔ7+/+) were purchased from Jackson Laboratory (USA, stock number 005025). The homozygous SMNΔ7 mice (affected and referred to as “SMNΔ7 mice”; mSmn−/−, SMN2+/+, SMNΔ7+/+) was generated by cross-bleeding of heterozygous SMNΔ7 mice. All experiments were approved and monitored by the animal experiment committee of Gifu Pharmaceutical University and were performed after approval by the Bioethics and Biosafety Committee of Gifu Pharmaceutical University. All procedures relating to animal care and treatment confirmed to animal care guidelines issued by the National Institutes of Health.
SMNΔ7 mice were treated with 2, 6, and 20 mg/kg TEC-1 (succinate) once a day by intraperitoneal injection (TERUMO, Japan) from P2 to P23. TEC-1 was diluted in 0.9% NaCl (aqueous) for intraperitoneal injection. After P24, TEC-1 was administrated one a day orally using 0.4 × 0.7 mm feeding needle (Primetech Corporation, Japan). For oral administration, TEC-1 was diluted in distilled water (Otsuka Pharmaceutical Factory, Japan). Heterozygous mice received equal volumes of vehicle.
Survival and body weight were assessed daily. Righting reflex test[15] tests were performed […] at P6, 11 and 16. Righting time was defined as the time it took a pup to turn over to its front after being placed completely on its back (maximum 60 s). Dead individuals were set to 60 s.

T1 sequence (P22303 32-614): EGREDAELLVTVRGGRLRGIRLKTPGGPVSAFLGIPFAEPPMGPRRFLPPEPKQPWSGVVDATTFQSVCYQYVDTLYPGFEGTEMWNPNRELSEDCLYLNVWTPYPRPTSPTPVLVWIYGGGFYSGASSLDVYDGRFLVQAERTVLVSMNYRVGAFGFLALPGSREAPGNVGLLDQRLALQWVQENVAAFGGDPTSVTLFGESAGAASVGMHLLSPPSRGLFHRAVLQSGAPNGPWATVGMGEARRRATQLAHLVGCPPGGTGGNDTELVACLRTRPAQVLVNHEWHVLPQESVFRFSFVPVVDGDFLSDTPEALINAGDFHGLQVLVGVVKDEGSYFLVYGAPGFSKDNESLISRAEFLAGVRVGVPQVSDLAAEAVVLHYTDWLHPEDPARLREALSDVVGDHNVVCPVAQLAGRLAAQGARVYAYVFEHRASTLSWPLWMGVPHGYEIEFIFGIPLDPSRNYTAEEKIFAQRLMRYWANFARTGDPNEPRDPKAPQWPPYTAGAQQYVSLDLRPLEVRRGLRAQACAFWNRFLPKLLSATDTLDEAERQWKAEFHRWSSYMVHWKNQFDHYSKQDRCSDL

Regarding `CCN1CCC(c2cc(C)c3nc(-c4cc5c(C)nc(C)cn5n4)cc(=O)n3c2)CC1` [SMN-C3, reference compound], the “increase in psychosine compared to the control” value with Hs683 cells is “approximately 22 fold”. The “EC1.5× FL-SMN2” value in the assay on FL-SMN2 mRNA is reported as 122.1 (74.5–221.7) nM. Further, the “GALC enzymatic activity compared to TEC-1” value with GALC is reported as “strongly decreased the activity of GALC”. Moreover, in the assay with FOXM1ΔC, the “EC4.0× FOXM1ΔC” value is on record as 298.5 (248.8–355.8) nM.
For `Cc1cn2nc(-c3nc4ccc(N5CCN(C)CC5)cc4c(=O)[nH]3)cc2c(C)n1` [TEC-1, 2-(4,6-dimethylpyrazolo[1,5-a]pyrazin-2-yl)-6-(4-methylpiperazin-1-yl)quinazolin-4(3H)-one], in the assay with Hs683 cells, the “increase in psychosine compared to the control” value is listed as 1.9 fold. The IC50 in assay [1] stood at 1.19 µM. Also, in the assay on SMNΔ7 mice (2 mg/kg, P16), the “righting reflex latency compared to vehicle-treated mice” value is recorded as “significantly shortened latency time”. In addition, the “SMA mice that survived” value amounted to 66% in the assay with SMNΔ7 mice (administered intraperitoneally throughout) and 40% in the assay on SMNΔ7 mice (oral administration after weaning). Further, the “body mass compared to vehicle-treated SMNΔ7 mice” value in the assay on SMNΔ7 mice (2, 6, 20 mg/kg once a day) is reported as “increased body mass”. For the same molecule, the “survival compared with vehicle-treated SMNΔ7 mice” value in the assay on SMNΔ7 mice (2, 6, 20 mg/kg once a day, Kaplan–Meier to P65) is listed as “enhanced the survival”. Besides, the “survivors at P65 / total mice” value with SMNΔ7 mice (20 mg/kg once daily (i.p. P2-P23, then p.o.)) is 4 of 10; with SMNΔ7 mice (20 mg/kg once daily (i.p.-i.p.), TEC-1 succinate), 2 of 3. In addition, the survival until weaning result in the assay with SMNΔ7 mice (all SMA model mice, 20 mg/kg intraperitoneally) is on record as “survived until weaning”. For the same molecule, in the assay on FL-SMN2 mRNA, the “EC1.5× FL-SMN2” value is listed as 49.1 (22.7–109.4) nM. Besides, in the assay with GALC (3000 nM), the GALC enzymatic activity entry is “slight decrease”. Moreover, the “EC4.0× FOXM1ΔC” value with FOXM1ΔC is recorded as 1311.6 (864.7–2285.8) nM.
